What all share (type): in vivo
Data set [1] deals with corn planthopper (Peregrinus maidis (Ashmead)). Put plainly: whole plant or invertebrate. The conditions noted are these: 144 h, sprayed at 50 ppm, nymphs, assessed after 6 days. As to the method:
(§1) Test compounds were formulated using a solution containing 10% acetone, 90% water and 300 ppm Activator 90® non-ionic surfactant (Loveland Products, Loveland, Colorado, USA). The formulated compounds were applied in 1 mL of liquid through an atomizer nozzle positioned 1.27 cm (0.5 inches) above the top of each test unit. Test compounds were sprayed at the rates indicated, and each test was replicated three times.
For evaluating control of corn planthopper (Peregrinus maidis (Ashmead)) through contact and/or systemic means, the test unit consisted of a small open container with a 3-4-day-old corn (maize) plant inside. White sand was added to the top of the soil prior to application of the test compound.
Test compounds were formulated and sprayed at 250 and/or 50 ppm and/or 10 ppm. After spraying of the formulated test compound, the test units were allowed to dry for 1 h before they were post-infested with ~15-20 nymphs (18-to-21-day-old). A black, screened cap was placed on the top of each test unit, and the test units were held for 6 days in a growth chamber at 22-24° C. and 50-70% relative humidity. Each test unit was then visually assessed for insect mortality.

Data set [2] concerns green peach aphid (Myzus persicae (Sulzer)). Nature of the data set: Test B: control of green peach aphid, spray on radish plant, visual mortality. The conditions noted are these: 144 h, assessed after 6 days; for mortality at 50 ppm: sprayed at 50 ppm. As to the method:
as §1
For evaluating control of green peach aphid (Myzus persicae (Sulzer)) through contact and/or systemic means, the test unit consisted of a small open container with a 12-15-day-old radish plant inside. This was pre-infested by placing on a leaf of the test plant 30-40 aphids on a piece of leaf excised from a culture plant (cut-leaf method). The aphids moved onto the test plant as the leaf piece desiccated. After pre-infestation, the soil of the test unit was covered with a layer of sand.
Test compounds were formulated and sprayed at 250 and/or 50 ppm. After spraying of the formulated test compound, each test unit was allowed to dry for 1 hour and then a black, screened cap was placed on top. The test units were held for 6 days in a growth chamber at 19-21° C. and 50-70% relative humidity. Each test unit was then visually assessed for insect mortality.

Data set [3] has as its system cotton melon aphid (Aphis gossypii (Glover)). Put plainly: whole plant or invertebrate. The conditions noted are these: 144 h, assessed after 6 days; for mortality at 50 ppm: sprayed at 50 ppm. As to the method:
as §1
For evaluating control of cotton melon aphid (Aphis gossypii (Glover)) through contact and/or systemic means, the test unit consisted of a small open container with a 5-day-old okra plant inside. This was pre-infested with 30-40 insects on a piece of leaf according to the cut-leaf method, and the soil of the test unit was covered with a layer of sand.
Test compounds were formulated and sprayed at 250 and/or 50 ppm. After spraying, the test units were maintained in a growth chamber for 6 days at 19° C. and 70% relative humidity. Each test unit was then visually assessed for insect mortality.

In data set [4] the test system is diamondback moth (Plutella xylostella (L.)). To be noted: sprayed at 250 ppm; neonate larvae; assessed after 6 days; very good to excellent levels of control efficacy. As to the method:
as §1
For evaluating control of diamondback moth (Plutella xylostella (L.)) the test unit consisted of a small open container with a 12-14-day-old mustard plant inside. This was pre-infested with ~50 neonate larvae that were dispensed into the test unit via corn cob grits using an inoculator. The larvae moved onto the test plant after being dispensed into the test unit.
Test compounds were formulated and sprayed at 250 and/or 50 ppm. After spraying of the formulated test compound, each test unit was allowed to dry for 1 hour and then a black, screened cap was placed on top. The test units were held for 6 days in a growth chamber at 25° C. and 70% relative humidity. Plant feeding damage was then visually assessed based on foliage consumed, and larvae were assessed for mortality.

Data set [5] concerns sweetpotato whitefly (Bemisia tabaci (Gennadius)). Nature of the data set: whole plant or invertebrate. The conditions noted are these: 312 h, sprayed at 50 ppm, eggs on cotton leaf, assessed after 13 days. As to the method:
as §1
For evaluating control of the sweetpotato whitefly (Bemisia tabaci (Gennadius)) through contact and/or systemic means, the test unit consisted of a small open container with a 12-14-day-old cotton plant inside. Prior to the spray application, both cotyledons were removed from the plant, leaving one true leaf for the assay. Adult whiteflies were allowed to lay eggs on the plant and then were removed from the test unit. Cotton plants infested with at least 15 eggs were submitted to the test for spraying.
Test compounds were formulated and sprayed at 50 and/or 10 ppm. After spraying, the test units were allowed to dry for 1 hour. The cylinders were then removed, and the units were taken to a growth chamber and held for 13 days at 28° C. and 50-70% relative humidity. Each test unit was then visually assessed for insect mortality.

Results on 3 compounds are retold here after patent US20260206760A1, “AZOLE COMPOUNDS FOR CONTROLLING AND COMBATING INVERTEBRATE PESTS” (FMC CORPORATION, priority 2022, published 2026).

The structures appear in SMILES notation.

As for `FC(F)(F)Oc1ccc(/C=C/c2ccncc2-n2nccn2)cc1` [Compound 1, 3-(1,2,3-triazol-2-yl)-4-[(1E)-2-[4-(trifluoromethoxy)phenyl]ethenyl]pyridine], the mortality at 50 ppm in data set [1], in data set [2] and in data set [3] was at least 80% each time.

In the case of `Fc1cncc(-n2ccnn2)c1C1CC1c1ccc(C(F)(F)F)cc1` (stereo not shown) [Compound 3, 3-fluoro-5-(triazol-1-yl)-4-[2-[4-(trifluoromethyl)phenyl]cyclopropyl]pyridine], the “control efficacy (feeding damage and/or mortality)” value in data set [4] was 40% or less feeding damage and/or 100% mortality.

Turning to `Fc1cncc(-n2nccn2)c1C1CC1c1ccc(C(F)(F)F)cc1` (stereo not shown) [Compound 4, 3-fluoro-5-(triazol-2-yl)-4-[2-[4-(trifluoromethyl)phenyl]cyclopropyl]pyridine], the mortality at 50 ppm in data set [2] is at least 80%; in data set [3], at least 80%; in data set [5], at least 70%. For the same compound, the mortality at 250 ppm in data set [2] (sprayed at 250 ppm) and in data set [3] (sprayed at 250 ppm) was at least 80% each time. Moreover, the “control efficacy (feeding damage and/or mortality)” value in data set [4] is on record as 40% or less feeding damage and/or 100% mortality.

The term mortality denotes the percentage killed. Higher therefore signals a strong lethal effect.
